Measured values published in ChEMBL document CHEMBL5321213, “Nicolaioidesin C: An Antiausterity Agent Shows Promising Antitumor Activity in a Pancreatic Cancer Xenograft Mouse Model” (J Nat Prod, 2023).
The source made the active and inactive calls. The calls are words filed in the database; no cut-off is given here.

Columns and labels:
[1] = system: MIA PaCa-2; assay: Antitumor activity against human MIA PaCa-2 cells xenografted in athymic BALB/c-nu mouse assessed as fold change in phenyl alanine level in tumor at 10 mg/kg/day, ip administered five times per week for 4 weeks by LC-MS analysis; format: functional
[2] = system: MIA PaCa-2; assay: Preferential cytotoxicity against human MIA PaCa-2 cells in nutrient-deprived medium assessed as alteration in cell morphology by measuring cell rounding at 5 uM measured after 24 hrs by acridine orange and ethidium bromide dual fluorescent staining based imaging analysis; format: functional
[3] = system: PANC-1; assay: Inhibition of Akt/mTOR signaling pathway in human PANC-1 cells in nutrient-deprived medium assessed as reduction in AKT phosphorylation at S473 residue measured after 6 hrs by Western blot analysis; format: cell-based; conditions: dose 5-20 µM
[4] = system: PANC-1; assay: Inhibition of autophagy in human PANC-1 cells in nutrient-deprived medium assessed as downregulation of LC3-I protein expression measured after 6 hrs by Western blot analysis; format: functional, cell-based; conditions: dose 5-20 µM
[5] = system: MIA PaCa-2; assay: Inhibition of Akt/mTOR signaling pathway in human MIA PaCa-2 cells in nutrient-deprived medium assessed as reduction in mTOR phosphorylation at S2481 residue measured after 6 hrs by Western blot analysis; format: cell-based; conditions: dose 5-20 µM
[6] = system: MIA PaCa-2; assay: Antimetastatic activity in human MIA PaCa-2 cells in nutrient-rich medium assessed as open wound area at 20 uM measured every 15 mins for 48 hrs by live cell imaging analysis (reference value: 17%); format: functional
[7] = system: MIA PaCa-2; assay: Antitumor activity against human MIA PaCa-2 cells xenografted in athymic BALB/c-nu mouse assessed as reduction in p-mTOR level in tumor at 2 to 10 mg/kg/day, ip administered five times per week for 4 weeks by immunohistochemistry analysis; format: functional, organism-based; conditions: dose 2-10 mg/kg/day
[8] = system: MIA PaCa-2; assay: Antitumor activity against human MIA PaCa-2 cells xenografted in athymic BALB/c-nu mouse assessed as reduction in LC3-1 level in tumor at 2 to 10 mg/kg/day, ip administered five times per week for 4 weeks by immunohistochemistry analysis; format: functional, organism-based; conditions: dose 2-10 mg/kg/day
[9] = system: MIA PaCa-2; assay: Antitumor activity against human MIA PaCa-2 cells xenografted in athymic BALB/c-nu mouse assessed as fold change in sphinganine level in tumor at 10 mg/kg/day, ip administered five times per week for 4 weeks by LC-MS analysis; format: functional
[10] = system: MIA PaCa-2; assay: Antitumor activity against human MIA PaCa-2 cells xenografted in athymic BALB/c-nu mouse assessed as fold change in alanine level in tumor at 10 mg/kg/day, ip administered five times per week for 4 weeks by LC-MS analysis; format: functional
[11] = system: MIA PaCa-2; assay: Antitumor activity against human MIA PaCa-2 cells xenografted in athymic BALB/c-nu mouse assessed as fold change in uracil level in tumor at 10 mg/kg/day, ip administered five times per week for 4 weeks by LC-MS analysis; format: functional
[12] = system: MIA PaCa-2; assay: Preferential cytotoxicity against human MIA PaCa-2 cells in nutrient-deprived medium assessed as alteration in cell morphology by measuring cell blebbing at 5 uM measured after 24 hrs by acridine orange and ethidium bromide dual fluorescent staining based imaging analysis; format: functional
[13] = system: PANC-1; assay: Inhibition of Akt/mTOR signaling pathway in human PANC-1 cells in DMEM media assessed as reduction in AKT phosphorylation at S473 residue at 5 to 20 uM measured after 6 hrs by Western blot analysis; format: cell-based; conditions: dose 5-20 µM
[14] = system: MIA PaCa-2; assay: Inhibition of Akt/mTOR signaling pathway in human MIA PaCa-2 cells in DMEM media assessed as reduction in AKT phosphorylation at S473 residue at 5 to 20 uM measured after 6 hrs by Western blot analysis; format: cell-based; conditions: dose 5-20 µM
[15] = system: MIA PaCa-2; assay: Antitumor activity against human MIA PaCa-2 cells xenografted in athymic BALB/c-nu mouse assessed as reduction in Akt phosphorylation at S473 residue in tumor at 10 mg/kg/day, ip administered five times per week for 4 weeks by Western blot analysis; format: functional, organism-based
[16] = system: MIA PaCa-2; assay: Antitumor activity against human MIA PaCa-2 cells xenografted in athymic BALB/c-nu mouse assessed as fold change in cytosine level in tumor at 10 mg/kg/day, ip administered five times per week for 4 weeks by LC-MS analysis; format: functional
[17] = system: MIA PaCa-2; assay: Antitumor activity against human MIA PaCa-2 cells xenografted in athymic BALB/c-nu mouse assessed as fold change in D-glucuronicacid level in tumor at 10 mg/kg/day, ip administered five times per week for 4 weeks by LC-MS analysis; format: functional
[18] = system: MIA PaCa-2; assay: Antitumor activity against human MIA PaCa-2 cells xenografted in athymic BALB/c-nu mouse assessed as fold change in 1-aminocyclopropanecarboxylicacid level in tumor at 2 mg/kg/day, ip administered five times per week for 4 weeks by LC-MS analysis; format: functional
[19] = system: MIA PaCa-2; assay: Antitumor activity against human MIA PaCa-2 cells xenografted in athymic BALB/c-nu mouse assessed as fold change in arabinosyl hypoxanthine level in tumor at 2 mg/kg/day, ip administered five times per week for 4 weeks by LC-MS analysis; format: functional
[20] = system: MIA PaCa-2; assay: Antitumor activity against human MIA PaCa-2 cells xenografted in athymic BALB/c-nu mouse assessed as fold change in biotin level in tumor at 2 mg/kg/day, ip administered five times per week for 4 weeks by LC-MS analysis; format: functional
[21] = system: MIA PaCa-2; assay: Antitumor activity against human MIA PaCa-2 cells xenografted in athymic BALB/c-nu mouse assessed as fold change in D-glucosamine 6-phosphate level in tumor at 2 mg/kg/day, ip administered five times per week for 4 weeks by LC-MS analysis; format: functional
[22] = system: MIA PaCa-2; assay: Antitumor activity against human MIA PaCa-2 cells xenografted in athymic BALB/c-nu mouse assessed as fold change in glycerol 3-phosphate level in tumor at 2 mg/kg/day, ip administered five times per week for 4 weeks by LC-MS analysis; format: functional
[23] = system: MIA PaCa-2; assay: Antitumor activity against human MIA PaCa-2 cells xenografted in athymic BALB/c-nu mouse assessed as fold change in alanine level in tumor at 2 mg/kg/day, ip administered five times per week for 4 weeks by LC-MS analysis; format: functional
[24] = system: MIA PaCa-2; assay: Antitumor activity against human MIA PaCa-2 cells xenografted in athymic BALB/c-nu mouse assessed as fold change in glutamic acid level in tumor at 2 mg/kg/day, ip administered five times per week for 4 weeks by LC-MS analysis; format: functional
[25] = system: MIA PaCa-2; assay: Antitumor activity against human MIA PaCa-2 cells xenografted in athymic BALB/c-nu mouse assessed as fold change in lysine level in tumor at 2 mg/kg/day, ip administered five times per week for 4 weeks by LC-MS analysis; format: functional
[26] = system: MIA PaCa-2; assay: Antitumor activity against human MIA PaCa-2 cells xenografted in athymic BALB/c-nu mouse assessed as fold change in N-acetyl- L-glutamic acid level in tumor at 2 mg/kg/day, ip administered five times per week for 4 weeks by LC-MS analysis; format: functional
[27] = system: MIA PaCa-2; assay: Antitumor activity against human MIA PaCa-2 cells xenografted in athymic BALB/c-nu mouse assessed as fold change in tetramethyl urea level in tumor at 2 mg/kg/day, ip administered five times per week for 4 weeks by LC-MS analysis; format: functional
[28] = system: MIA PaCa-2; assay: Antitumor activity against human MIA PaCa-2 cells xenografted in athymic BALB/c-nu mouse assessed as fold change in uracil level in tumor at 2 mg/kg/day, ip administered five times per week for 4 weeks by LC-MS analysis; format: functional

## COc1cc(O)c(C(=O)[C@@H]2CC=C(CCC=C(C)C)C[C@H]2c2ccccc2)c(O)c1
[1]
  fold change (FC): 0.43
[2]
  Activity: Active
[3]
  inhibition: Dose-Dependent Effect
[4]
  inhibition: Dose-Dependent Effect
[5]
  inhibition: Dose-Dependent Effect
[6]
  Activity: 66%
[7]
  Activity: Active
[8]
  Activity: Active
[9]
  fold change (FC): 3.68
[10]
  fold change (FC): 0.42
[11]
  fold change (FC): 0.09
[12]
  Activity: Active
[13]
  inhibition: inactive
[14]
  inhibition: inactive
[15]
  Activity: Active
[16]
  fold change (FC): 0.44
[17]
  fold change (FC): 0.68
[18]
  fold change (FC): 0.8
[19]
  fold change (FC): 0.46
[20]
  fold change (FC): 0.86
[21]
  fold change (FC): 0.4
[22]
  fold change (FC): 0.4
[23]
  fold change (FC): 0.49
[24]
  fold change (FC): 0.41
[25]
  fold change (FC): 0.32
[26]
  fold change (FC): 0.45
[27]
  fold change (FC): 0.76
[28]
  fold change (FC): 0.29
